Molecular target: PD-1/PD-L1 (Homo sapiens, UniProt Q9NZQ7)
Test: TR-FRET PD-1/PD-L1 binding inhibition at the molecular level (free proteins)
Conditions: Tag1-PD-L1 and Tag2-PD-1 proteins, twelve concentrations from 200 nM, 2 hours at room temperature, read-out: FRET assay (IC50)
Method in brief: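 HTRF read-out at 665/620 nm after 2 h at room temperature. Detection used anti-Tag1 Eu cryptate plus anti-Tag2 XL665 antibodies. Tagged PD-L1 and PD-1 proteins were pre-mixed with compound across twelve […] 1:2 dilutions starting at 200 nM.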

PD-1/PD-L1, sequence (Q9NZQ7 19-238 limits assumed): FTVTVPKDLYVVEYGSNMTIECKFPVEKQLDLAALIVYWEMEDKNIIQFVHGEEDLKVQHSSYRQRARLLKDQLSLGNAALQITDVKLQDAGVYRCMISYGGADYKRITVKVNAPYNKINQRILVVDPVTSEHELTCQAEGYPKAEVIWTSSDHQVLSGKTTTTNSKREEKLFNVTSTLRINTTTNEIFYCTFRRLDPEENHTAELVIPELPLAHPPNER

Structure (SMILES)	IC50
O=C(Nc1cccc(-c2cccc(Nc3nc(C(F)F)nc4cc(CN5CC[C@@H](O)C5)cnc34)c2Cl)c1Cl)c1cc2n(n1)CCCC2O (stereo partly drawn) [Compound 138, N-(2,2'-dichloro-3'-((2-(difluoromethyl)-7-(((R)-3-hydroxypyrrolidin-1-yl)methyl)pyrido[3,2-d]pyrimidin-4-yl)amino)-[1,1'-biphenyl]-3-yl)-4-hydroxy-4,5,6,7-tetrahydropyrazolo[1,5-a]pyridine-2-carboxamide]	10 to 100 nM
CC(=O)NCCNC1CCCn2nc(C(=O)Nc3cccc(-c4cccc(Nc5nc(C(F)F)nc6cc(CN7CC[C@@H](O)C7)cnc56)c4Cl)c3Cl)cc21 (stereo partly drawn) [Compound 139, 4-((2-acetamidoethyl)amino)-N-(2,2'-dichloro-3'-((2-(difluoromethyl)-7-(((R)-3-hydroxypyrrolidin-1-yl)methyl)pyrido[3,2-d]pyrimidin-4-yl)amino)-[1,1'-biphenyl]-3-yl)-4,5,6,7-tetrahydropyrazolo[1,5-a]pyridine-2-carboxamide]	10 to 100 nM
O=C(Nc1cccc(-c2cccc(Nc3nc(C(F)F)nc4cc(CN5CC[C@@H](O)C5)cnc34)c2Cl)c1Cl)c1cc2n(n1)CCCC2N1CC[C@@H](O)C1 (stereo partly drawn) [Compound 140, N-(2,2'-dichloro-3'-((2-(difluoromethyl)-7-(((R)-3-hydroxypyrrolidin-1-yl)methyl)pyrido[3,2-d]pyrimidin-4-yl)amino)-[1,1'-biphenyl]-3-yl)-4-((R)-3-hydroxypyrrolidin-1-yl)-4,5,6,7-tetrahydropyrazolo[1,5-a]pyridine-2-carboxamide]	10 to 100 nM
O=C(Nc1cccc(-c2cccc(Nc3nc(C(F)F)nc4cc(CN5CC[C@@H](O)C5)cnc34)c2Cl)c1Cl)c1cc2n(n1)CCCC2NCCO (stereo partly drawn) [Compound 141, N-(2,2'-dichloro-3'-((2-(difluoromethyl)-7-(((R)-3-hydroxypyrrolidin-1-yl)methyl)pyrido[3,2-d]pyrimidin-4-yl)amino)-[1,1'-biphenyl]-3-yl)-4-((2-hydroxyethyl)amino)-4,5,6,7-tetrahydropyrazolo[1,5-a]pyridine-2-carboxamide]	10 to 100 nM
O=C(Nc1cccc(-c2cccc(Nc3nc(C(F)F)nc4cc(CN5CC[C@@H](O)C5)cnc34)c2Cl)c1Cl)c1cc2n(n1)CCCC2N1CCC(O)CC1 (stereo partly drawn) [Compound 144, N-(2,2'-dichloro-3'-((2-(difluoromethyl)-7-(((R)-3-hydroxypyrrolidin-1-yl)methyl)pyrido[3,2-d]pyrimidin-4-yl)amino)-[1,1'-biphenyl]-3-yl)-4-(4-hydroxypiperidin-1-yl)-4,5,6,7-tetrahydropyrazolo[1,5-a]pyridine-2-carboxamide]	10 to 100 nM
O=C(Nc1cccc(-c2cccc(NC(=O)c3nc4c(s3)CN(CCF)CC4)c2Cl)c1Cl)c1cc2n(n1)CCCC2NCCO (centres unmarked) [Compound 150-1, N-(2,2'-dichloro-3'-(4-((2-hydroxyethyl)amino)-4,5,6,7-tetrahydropyrazolo[1,5-a]pyridine-2-carboxamido)-[1,1'-biphenyl]-3-yl)-5-(2-fluoroethyl)-4,5,6,7-tetrahydrothiazolo[5,4-c]pyridine-2-carboxamide]	< 10 nM
O=C(O)CNC1CCCn2nc(C(=O)Nc3cccc(-c4cccc(NC(=O)c5nc6c(s5)CN(CCF)CC6)c4Cl)c3Cl)cc21 (centres unmarked) [Compound 150-2, 2-((2-((2,2'-dichloro-3'-(5-(2-fluoroethyl)-4,5,6,7-tetrahydrothiazolo[5,4-c]pyridine-2-carboxamido)-[1,1'-biphenyl]-3-yl)carbamoyl)-4,5,6,7-tetrahydropyrazolo[1,5-a]pyridin-4-yl)amino)acetic acid]	< 10 nM
CC(=O)NCCNC1CCCn2nc(C(=O)Nc3cccc(-c4cccc(-c5nc6c(s5)CCN(C)C6)c4C)c3C)cc21 (centres unmarked) [Compound 152, 4-((2-acetamidoethyl)amino)-N-(2,2'-dimethyl-3'-(5-methyl-4,5,6,7-tetrahydrothiazolo[4,5-c]pyridin-2-yl)-[1,1'-biphenyl]-3-yl)-4,5,6,7-tetrahydropyrazolo[1,5-a]pyridine-2-carboxamide]	10 to 100 nM
Cc1c(NC(=O)c2cc3n(n2)CCCC3NCC(=O)O)cccc1-c1cccc(-c2nc3c(s2)CCN(C)C3)c1C (centres unmarked) [Compound 153, 2-((2-((2,2'-dimethyl-3'-(5-methyl-4,5,6,7-tetrahydrothiazolo[4,5-c]pyridin-2-yl)-[1,1'-biphenyl]-3-yl)carbamoyl)-4,5,6,7-tetrahydropyrazolo[1,5-a]pyridin-4-yl)amino)acetic acid]	< 10 nM
Cc1c(NC(=O)c2cc3n(n2)CCCC3N2CC[C@@H](O)C2)cccc1-c1cccc(-c2nc3c(s2)CCN(C)C3)c1C (stereo partly drawn) [Compound 154, N-(2,2'-dimethyl-3'-(5-methyl-4,5,6,7-tetrahydrothiazolo[4,5-c]pyridin-2-yl)-[1,1'-biphenyl]-3-yl)-4-((R)-3-hydroxypyrrolidin-1-yl)-4,5,6,7-tetrahydropyrazolo[1,5-a]pyridine-2-carboxamide]	10 to 100 nM
Cc1c(-c2cc3n(n2)CCCC3N2CCC(O)C2)cccc1-c1cccc(-c2cc3n(n2)CCCC3N2CCC(O)C2)c1C [Compound 156, (3R,3'R)-1,1'-(2,2'-(2,2'-dimethyl-[1,1'-biphenyl]-3,3'-diyl)bis(4,5,6,7-tetrahydropyrazolo[1,5-a]pyridine-4,2-diyl))bis(pyrrolidin-3-ol)]	100 to 1000 nM
Cc1c(-c2cc3n(n2)CCCC3NCCO)cccc1-c1cccc(-c2cc3n(n2)CCCC3N2CC[C@@H](O)C2)c1C (stereo partly drawn) [Compound 157, (3R)-1-(2-(3'-(4-((2-hydroxyethyl)amino)-4,5,6,7-tetrahydropyrazolo[1,5-a]pyridin-2-yl)-2,2'-dimethyl-[1,1'-biphenyl]-3-yl)-4,5,6,7-tetrahydropyrazolo[1,5-a]pyridin-4-yl)pyrrolidin-3-ol]	> 1000 nM

The remaining lines, values ahead:

IC50	Structure (SMILES)
< 10 nM	O=C(Nc1cccc(-c2cccc(Nc3nc(C(F)F)nc4cc(CN5CC[C@@H](O)C5)cnc34)c2Cl)c1Cl)c1cc2n(n1)CCCC2N1CC[C@@H](C(=O)O)C1 (stereo partly drawn) [Compound 142, (3R)-1-(2-((2,2'-dichloro-3'-((2-(difluoromethyl)-7-(((R)-3-hydroxypyrrolidin-1-yl)methyl)pyrido[3,2-d]pyrimidin-4-yl)amino)-[1,1'-biphenyl]-3-yl)carbamoyl)-4,5,6,7-tetrahydropyrazolo[1,5-a]pyridin-4-yl)pyrrolidine-3-carboxylic acid]
< 10 nM	O=C(O)CNC1CCCn2nc(C(=O)Nc3cccc(-c4cccc(Nc5nc(C(F)F)nc6cc(CN7CC[C@@H](O)C7)cnc56)c4Cl)c3Cl)cc21 (stereo partly drawn) [Compound 143, 2-((2-((2,2'-dichloro-3'-((2-(difluoromethyl)-7-(((R)-3-hydroxypyrrolidin-1-yl)methyl)pyrido[3,2-d]pyrimidin-4-yl)amino)-[1,1'-biphenyl]-3-yl)carbamoyl)-4,5,6,7-tetrahydropyrazolo[1,5-a]pyridin-4-yl)amino)acetic acid]
< 10 nM	O=C(Nc1cccc(-c2cccc(Nc3nc(C(F)F)nc4cc(CN5CC[C@@H](O)C5)cnc34)c2Cl)c1Cl)c1cc2n(n1)CCCC2N1CCC(C(=O)O)CC1 (stereo partly drawn) [Compound 145, 1-(2-((2,2'-dichloro-3'-((2-(difluoromethyl)-7-({(R)-3-hydroxypyrrolidin-1-yl)methyl)pyrido[3,2-d]pyrimidin-4-yl)amino)-[1,1'-biphenyl]-3-yl)carbamoyl)-4,5,6,7-tetrahydropyrazolo[1,5-a]pyridin-4-yl)piperidine-4-carboxylic acid]
< 10 nM	CC(C)(NC1CCCn2nc(C(=O)Nc3cccc(-c4cccc(Nc5nc(C(F)F)nc6cc(CN7CC[C@@H](O)C7)cnc56)c4Cl)c3Cl)cc21)C(=O)O (stereo partly drawn) [Compound 146, 2-((2-((2,2'-dichloro-3'-((2-(difluoromethyl)-7-(((R)-3-hydroxypyrrolidin-1-yl)methyl)pyrido[3,2-d]pyrimidin-4-yl)amino)-[1,1'-biphenyl]-3-yl)carbamoyl)-4,5,6,7-tetrahydropyrazolo[1,5-a]pyridin-4-yl)amino)-2-methylpropanoic acid]
< 10 nM	Cc1c(NC(=O)c2cc3n(n2)CCCC3NCCO)cccc1-c1cccc(NC(=O)c2nc3c(s2)CN(C)CC3)c1C (centres unmarked) [Compound 147, N-(3'-(4-((2-hydroxyethyl)amino)-4,5,6,7-tetrahydropyrazolo[1,5-a]pyridine-2-carboxamido)-2,2'-dimethyl-[1,1'-biphenyl]-3-yl)-5-methyl-4,5,6,7-tetrahydrothiazolo[5,4-c]pyridine-2-carboxamide]
< 10 nM	CC(=O)NCCNC1CCCn2nc(C(=O)Nc3cccc(-c4cccc(NC(=O)c5nc6c(s5)CN(C)CC6)c4C)c3C)cc21 (centres unmarked) [Compound 148, N-(3'-(4-((2-acetamidoethyl)amino)-4,5,6,7-tetrahydropyrazolo[1,5-a]pyridine-2-carboxamido)-2,2'-dimethyl-[1,1'-biphenyl]-3-yl)-5-methyl-4,5,6,7-tetrahydrothiazolo[5,4-c]pyridine-2-carboxamide]
< 10 nM	Cc1c(NC(=O)c2cc3n(n2)CCCC3NCC(=O)O)cccc1-c1cccc(NC(=O)c2nc3c(s2)CN(C)CC3)c1C (centres unmarked) [Compound 149, 2-((2-((2,2'-dimethyl-3'-(5-methyl-4,5,6,7-tetrahydrothiazolo[5,4-c]pyridine-2-carboxamido)-[1,1'-biphenyl]-3-yl)carbamoyl)-4,5,6,7-tetrahydropyrazolo[1,5-a]pyridin-4-yl)amino)acetic acid]
< 10 nM	Cc1c(NC(=O)c2cc3n(n2)CCCC3N2CC[C@@H](O)C2)cccc1-c1cccc(NC(=O)c2nc3c(s2)CN(C)CC3)c1C (stereo partly drawn) [Compound 150, N-(3'-(4-((R)-3-hydroxypyrrolidin-1-yl)-4,5,6,7-tetrahydropyrazolo[1,5-a]pyridine-2-carboxamido)-2,2'-dimethyl-[1,1'-biphenyl]-3-yl)-5-methyl-4,5,6,7-tetrahydrothiazolo[5,4-c]pyridine-2-carboxamide]

Reference: patent EP4755888A1 (ILAb Co., Ltd., priority 2023, dated 2025)
